Measurements from ChEMBL document CHEMBL1909046, “DrugMatrix in vitro pharmacology data”.

How the values were obtained:
[1] = target: Sodium-dependent noradrenaline transporter (Homo sapiens, UniProt P23975); test: DRUGMATRIX: Norepinephrine Transporter radioligand binding (ligand: [125I] RTI-55); assay type: cell membranes, MDCK, Membrane; details: mdck; Not Active = under 50% inhibition at 10 µM
[2] = target: T1, Receptor-type tyrosine-protein phosphatase C (Homo sapiens, UniProt P08575); design: species or system Escherichia coli;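 also: inhibition of CD45 enzyme activity measured using DiFMUP as substrate; in other assays of this panel Not Active means under 50% inhibition at 10 µM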
T1 sequence (P08575 whole entry): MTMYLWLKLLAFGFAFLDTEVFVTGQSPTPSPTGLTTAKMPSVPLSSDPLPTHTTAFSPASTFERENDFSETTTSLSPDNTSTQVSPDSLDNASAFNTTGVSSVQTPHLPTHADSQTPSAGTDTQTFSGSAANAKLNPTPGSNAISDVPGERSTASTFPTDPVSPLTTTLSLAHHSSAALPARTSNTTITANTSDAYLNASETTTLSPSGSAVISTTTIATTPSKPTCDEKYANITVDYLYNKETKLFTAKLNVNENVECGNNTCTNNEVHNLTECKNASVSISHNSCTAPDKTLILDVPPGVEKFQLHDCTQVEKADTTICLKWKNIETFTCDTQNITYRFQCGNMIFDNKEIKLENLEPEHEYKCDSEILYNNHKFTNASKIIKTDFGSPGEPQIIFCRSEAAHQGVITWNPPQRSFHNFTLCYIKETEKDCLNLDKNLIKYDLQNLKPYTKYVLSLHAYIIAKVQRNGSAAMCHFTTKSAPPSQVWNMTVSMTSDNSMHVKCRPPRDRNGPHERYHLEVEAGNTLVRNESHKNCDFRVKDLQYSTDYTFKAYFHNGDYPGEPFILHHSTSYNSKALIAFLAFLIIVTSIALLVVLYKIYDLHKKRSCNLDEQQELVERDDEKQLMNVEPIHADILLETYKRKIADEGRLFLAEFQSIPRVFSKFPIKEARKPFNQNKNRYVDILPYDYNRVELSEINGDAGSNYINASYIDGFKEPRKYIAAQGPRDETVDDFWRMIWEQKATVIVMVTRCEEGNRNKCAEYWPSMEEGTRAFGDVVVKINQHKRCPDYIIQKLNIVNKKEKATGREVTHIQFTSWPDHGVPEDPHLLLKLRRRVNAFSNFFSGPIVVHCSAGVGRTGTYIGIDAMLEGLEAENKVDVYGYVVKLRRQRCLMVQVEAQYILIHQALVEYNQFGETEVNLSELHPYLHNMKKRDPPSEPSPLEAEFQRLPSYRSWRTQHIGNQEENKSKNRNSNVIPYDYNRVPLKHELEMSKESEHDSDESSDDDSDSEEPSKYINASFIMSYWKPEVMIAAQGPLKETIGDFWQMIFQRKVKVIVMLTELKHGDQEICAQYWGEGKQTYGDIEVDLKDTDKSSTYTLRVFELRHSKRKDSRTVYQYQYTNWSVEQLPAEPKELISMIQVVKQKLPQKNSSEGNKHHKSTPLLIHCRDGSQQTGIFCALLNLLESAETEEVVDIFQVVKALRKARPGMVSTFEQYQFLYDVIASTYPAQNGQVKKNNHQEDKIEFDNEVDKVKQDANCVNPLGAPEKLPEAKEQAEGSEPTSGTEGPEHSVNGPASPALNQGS

[3] = target: Sigma non-opioid intracellular receptor 1 (Homo sapiens, UniProt Q99720); test: DRUGMATRIX: Sigma1 radioligand binding (ligand: [3H] Haloperidol); assay type: cell membranes, Jurkat, Membrane; details: jurkat; Not Active = under 50% inhibition at 10 µM
Sequence of Sigma non-opioid intracellular receptor 1 (Q99720 whole entry): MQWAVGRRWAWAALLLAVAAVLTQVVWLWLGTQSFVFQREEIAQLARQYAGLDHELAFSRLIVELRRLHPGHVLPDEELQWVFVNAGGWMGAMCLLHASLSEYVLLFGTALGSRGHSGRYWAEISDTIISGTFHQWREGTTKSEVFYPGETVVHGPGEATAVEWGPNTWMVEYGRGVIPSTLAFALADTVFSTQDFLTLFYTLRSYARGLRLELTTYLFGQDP

[4] = target: Receptor tyrosine-protein kinase erbB-2 (Homo sapiens, UniProt P04626); test: biochemical; assay type: cell-based, Insect cells; details: insect cells;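 also: inhibition of HER2 kinase enzyme activity, measured with Poly(Glu:Tyr) as the phosphorylation substrate; in other assays of this panel Not Active means under 50% inhibition at 10 µM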
Sequence of Receptor tyrosine-protein kinase erbB-2 (P04626 whole entry): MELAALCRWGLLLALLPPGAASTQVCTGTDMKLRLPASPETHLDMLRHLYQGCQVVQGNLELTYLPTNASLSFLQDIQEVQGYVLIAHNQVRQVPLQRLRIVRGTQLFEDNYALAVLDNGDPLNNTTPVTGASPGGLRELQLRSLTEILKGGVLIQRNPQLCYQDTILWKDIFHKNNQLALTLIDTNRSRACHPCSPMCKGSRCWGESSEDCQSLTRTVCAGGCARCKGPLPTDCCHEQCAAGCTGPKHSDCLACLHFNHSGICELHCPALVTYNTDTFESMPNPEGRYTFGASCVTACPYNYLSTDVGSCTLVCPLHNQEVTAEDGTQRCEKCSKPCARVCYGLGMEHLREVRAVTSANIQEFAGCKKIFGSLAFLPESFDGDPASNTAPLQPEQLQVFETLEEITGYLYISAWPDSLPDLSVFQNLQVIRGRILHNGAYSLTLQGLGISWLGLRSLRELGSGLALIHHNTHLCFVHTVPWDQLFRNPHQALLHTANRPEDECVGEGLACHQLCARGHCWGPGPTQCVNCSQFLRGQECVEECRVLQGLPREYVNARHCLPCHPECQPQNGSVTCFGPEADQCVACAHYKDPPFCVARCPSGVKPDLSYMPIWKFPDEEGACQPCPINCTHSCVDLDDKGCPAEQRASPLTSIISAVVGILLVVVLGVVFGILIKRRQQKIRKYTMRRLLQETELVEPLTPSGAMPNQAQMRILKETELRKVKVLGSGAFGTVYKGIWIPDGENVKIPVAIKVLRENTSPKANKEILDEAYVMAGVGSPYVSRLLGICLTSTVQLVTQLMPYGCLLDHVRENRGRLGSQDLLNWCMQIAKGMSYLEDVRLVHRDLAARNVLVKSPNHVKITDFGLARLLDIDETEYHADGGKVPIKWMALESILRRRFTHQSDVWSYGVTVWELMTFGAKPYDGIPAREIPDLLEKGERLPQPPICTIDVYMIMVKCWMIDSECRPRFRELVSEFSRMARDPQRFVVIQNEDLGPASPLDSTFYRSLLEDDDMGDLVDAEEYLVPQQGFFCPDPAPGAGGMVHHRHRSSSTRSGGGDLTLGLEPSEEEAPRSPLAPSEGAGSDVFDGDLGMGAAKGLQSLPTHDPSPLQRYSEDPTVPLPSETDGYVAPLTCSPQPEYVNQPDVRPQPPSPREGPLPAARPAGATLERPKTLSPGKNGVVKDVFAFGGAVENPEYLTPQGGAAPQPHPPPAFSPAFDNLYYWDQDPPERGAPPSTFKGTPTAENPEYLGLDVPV

[5] = target: T2, Alpha-1D adrenergic receptor (Homo sapiens, UniProt P25100); assay type: cell membranes, HEK293, Membrane; details: hek293; also: in other assays of this panel Not Active means under 50% inhibition at 10 µM
T2 sequence (P25100 whole entry): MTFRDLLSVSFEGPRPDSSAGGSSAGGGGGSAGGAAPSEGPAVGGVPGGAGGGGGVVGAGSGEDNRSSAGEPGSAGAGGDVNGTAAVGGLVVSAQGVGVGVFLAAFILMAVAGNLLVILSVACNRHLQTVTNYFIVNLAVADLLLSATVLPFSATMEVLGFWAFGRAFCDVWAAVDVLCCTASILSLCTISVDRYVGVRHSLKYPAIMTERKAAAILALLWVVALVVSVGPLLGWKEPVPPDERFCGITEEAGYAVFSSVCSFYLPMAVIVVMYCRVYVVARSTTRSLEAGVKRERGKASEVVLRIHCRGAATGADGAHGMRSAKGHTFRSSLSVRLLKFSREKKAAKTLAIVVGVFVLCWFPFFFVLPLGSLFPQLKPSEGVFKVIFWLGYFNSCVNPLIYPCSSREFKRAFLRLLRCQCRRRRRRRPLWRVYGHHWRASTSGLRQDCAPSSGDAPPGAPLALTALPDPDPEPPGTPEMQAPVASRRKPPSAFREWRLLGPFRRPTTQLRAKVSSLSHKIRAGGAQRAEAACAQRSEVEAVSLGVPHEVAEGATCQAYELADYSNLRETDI

[6] = target: Platelet-activating factor receptor (Homo sapiens, UniProt P25105); assay type: tissue-based; also: in other assays of this panel Not Active means under 50% inhibition at 10 µM
Sequence of Platelet-activating factor receptor (P25105 whole entry): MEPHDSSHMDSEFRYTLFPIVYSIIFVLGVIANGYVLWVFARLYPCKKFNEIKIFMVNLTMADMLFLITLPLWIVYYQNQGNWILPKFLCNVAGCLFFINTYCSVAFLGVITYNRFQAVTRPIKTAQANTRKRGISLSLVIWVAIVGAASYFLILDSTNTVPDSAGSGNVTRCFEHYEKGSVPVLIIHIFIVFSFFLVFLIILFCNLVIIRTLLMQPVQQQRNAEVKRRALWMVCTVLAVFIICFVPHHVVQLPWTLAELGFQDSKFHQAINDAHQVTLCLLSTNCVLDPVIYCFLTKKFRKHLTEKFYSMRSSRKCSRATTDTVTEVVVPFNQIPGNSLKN

Sequence of Sodium-dependent noradrenaline transporter (P23975 whole entry): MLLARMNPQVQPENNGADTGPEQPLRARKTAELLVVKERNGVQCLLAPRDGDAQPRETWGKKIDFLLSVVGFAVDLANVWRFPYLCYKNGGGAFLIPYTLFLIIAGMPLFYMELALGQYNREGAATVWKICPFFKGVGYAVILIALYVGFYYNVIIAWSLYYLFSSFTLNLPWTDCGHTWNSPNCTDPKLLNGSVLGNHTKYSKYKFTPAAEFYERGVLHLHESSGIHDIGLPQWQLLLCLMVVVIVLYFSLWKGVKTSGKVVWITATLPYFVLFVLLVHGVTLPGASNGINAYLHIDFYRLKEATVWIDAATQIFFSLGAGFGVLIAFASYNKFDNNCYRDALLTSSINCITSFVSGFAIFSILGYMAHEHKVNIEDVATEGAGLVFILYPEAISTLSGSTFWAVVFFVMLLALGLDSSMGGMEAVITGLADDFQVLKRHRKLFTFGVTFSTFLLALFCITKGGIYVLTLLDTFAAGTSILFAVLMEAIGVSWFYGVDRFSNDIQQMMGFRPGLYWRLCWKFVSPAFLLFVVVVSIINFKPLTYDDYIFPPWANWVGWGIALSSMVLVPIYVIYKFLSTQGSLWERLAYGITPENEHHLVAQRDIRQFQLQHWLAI

CCOC(=O)[C@H](CCc1ccccc1)N[C@H]1CCc2ccccc2N(CC(=O)O)C1=O [BENAZEPRIL]
Not Active: IC50 [1] | IC50 [2] | IC50 [3] | IC50 [4] | IC50 [5] | IC50 [6]

Nc1c(CC(=O)O)cccc1C(=O)c1ccc(Br)cc1 [BROMFENAC]
Not Active: IC50 [1] | IC50 [2] | IC50 [3] | IC50 [4] | IC50 [5] | IC50 [6]

CCCCN1CCCCC1C(=O)Nc1c(C)cccc1C.Cl (stereo not given) [BUPIVACAINE HYDROCHLORIDE]
Not Active: IC50 [1] | IC50 [2] | IC50 [3] | IC50 [4] | IC50 [5] | IC50 [6]

O=C1CC2(CCCC2)CC(=O)N1CCCCN1CCN(c2ncccn2)CC1 [BUSPIRONE]
Not Active: IC50 [1] | IC50 [2] | IC50 [4] | IC50 [6]

C[C@@]12C(=O)OC(=O)[C@]1(C)[C@H]1CC[C@@H]2O1 [CANTHARIDIN]
Not Active: IC50 [1] | IC50 [2] | IC50 [3] | IC50 [4] | IC50 [5] | IC50 [6]

O=NN(CCCl)C(=O)NCCCl [CARMUSTINE]
Not Active: IC50 [1] | IC50 [2] | IC50 [3] | IC50 [4] | IC50 [5] | IC50 [6]

CC1=C(C(=O)O)N2C(=O)[C@@H](NC(=O)[C@H](N)c3ccccc3)[C@H]2SC1 [CEPHALEXIN ANHYDROUS]
Not Active: IC50 [1] | IC50 [2] | IC50 [3] | IC50 [4] | IC50 [5] | IC50 [6]

O=C(N[C@H](CO)[C@H](O)c1ccc([N+](=O)[O-])cc1)C(Cl)Cl [CHLORAMPHENICOL]
Not Active: IC50 [1] | IC50 [2] | IC50 [3] | IC50 [4] | IC50 [5] | IC50 [6]

ClC(Cl)Cl [CHLOROFORM]
Not Active: IC50 [1] | IC50 [2] | IC50 [3] | IC50 [4] | IC50 [5] | IC50 [6]

C=C1CC[C@H](O)C/C1=C/C=C1\CCC[C@]2(C)[C@@H]([C@H](C)CCCC(C)C)CC[C@@H]12 [CHOLECALCIFEROL]
Not Active: IC50 [1] | IC50 [2] | IC50 [3] | IC50 [4] | IC50 [5] | IC50 [6]

C[N+](C)(C)CCO.[Cl-] [CHOLINE CHLORIDE]
Not Active: IC50 [1] | IC50 [2] | IC50 [3] | IC50 [4] | IC50 [5] | IC50 [6]

CCOC(=O)C(C)(C)Oc1ccc(Cl)cc1 [CLOFIBRATE]
Not Active: IC50 [1] | IC50 [2] | IC50 [3] | IC50 [4] | IC50 [5] | IC50 [6]

O=C(C1CCCCC1)N1CC(=O)N2CCc3ccccc3C2C1 (stereo not given) [PRAZIQUANTEL]
Not Active: IC50 [1] | IC50 [2] | IC50 [4] | IC50 [5] | IC50 [6]

CADMIUM DICHLORIDE
Not Active: IC50 [1] | Ki [1] | IC50 [2] | Ki [2] | IC50 [3] | Ki [3] | IC50 [5] | Ki [5] | IC50 [6] | Ki [6]
